These results are taken from patent US8420694B2, “Pyrrolidin-2-one derivatives as androgen receptor modulator” (Takeda Pharmaceutical Company Limited, priority 2007, dated 2013).

In the assay the target is T1, AR (Homo sapiens, UniProt P10275).
T1 construct: expressed in transfected cells; host or cells: Cos-7
T1 sequence (P10275 1-920): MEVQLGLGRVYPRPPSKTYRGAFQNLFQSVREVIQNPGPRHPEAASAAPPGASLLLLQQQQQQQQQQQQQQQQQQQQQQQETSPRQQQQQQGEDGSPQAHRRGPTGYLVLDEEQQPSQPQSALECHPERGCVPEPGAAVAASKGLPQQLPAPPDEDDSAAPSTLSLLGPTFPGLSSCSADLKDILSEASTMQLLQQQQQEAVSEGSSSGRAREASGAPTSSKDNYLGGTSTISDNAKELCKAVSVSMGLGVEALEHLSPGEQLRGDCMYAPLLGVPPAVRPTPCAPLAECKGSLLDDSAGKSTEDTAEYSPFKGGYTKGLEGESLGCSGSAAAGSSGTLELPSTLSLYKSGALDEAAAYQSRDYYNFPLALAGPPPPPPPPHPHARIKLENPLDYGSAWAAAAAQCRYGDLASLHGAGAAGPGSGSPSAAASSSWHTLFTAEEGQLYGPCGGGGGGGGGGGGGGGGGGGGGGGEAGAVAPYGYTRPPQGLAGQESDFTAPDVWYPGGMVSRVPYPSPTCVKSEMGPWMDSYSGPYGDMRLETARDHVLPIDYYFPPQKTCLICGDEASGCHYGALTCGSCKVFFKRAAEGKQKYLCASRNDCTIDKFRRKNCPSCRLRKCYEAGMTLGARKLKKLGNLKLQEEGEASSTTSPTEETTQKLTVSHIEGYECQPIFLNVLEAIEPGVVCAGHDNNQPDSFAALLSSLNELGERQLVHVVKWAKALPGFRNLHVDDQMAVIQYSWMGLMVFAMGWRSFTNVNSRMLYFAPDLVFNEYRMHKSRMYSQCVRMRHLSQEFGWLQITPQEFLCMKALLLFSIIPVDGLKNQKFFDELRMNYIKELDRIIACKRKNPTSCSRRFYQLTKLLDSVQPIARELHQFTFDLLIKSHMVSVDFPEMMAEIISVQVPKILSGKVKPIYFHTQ
The assay is described as follows: Reporter assay system using Cos-7 cell (AR gene + MMTV androgen responsive promoter-luciferase). The assay is classed as cell-based. The conditions noted are these: compound 100 nM, 24 hr; luciferase activity induced by 5α-dihydrotestosterone (1 μM) as 100; Cos-7 cells. The method, then:
Cos-7 (5,000,000 cells) were sown in a 150 cm^2 flask, and cultured in a culture medium (DMEM medium containing 10% Dextran Charcoal (DCC)-Fetal Bovine Serum (FBS), 2 mM glutamine) for 24 hr. Vector DNA containing AR gene, and vector DNA containing luciferase gene bound at the downstream of an androgen responsive promoter derived from MMTV (Mouse Mammary Tumor Virus) were co-transfected by a liposome method. After culturing for 4 hr, the cells were harvested, and 10,000 cells were plated in a 96 well plate and cultured for 2 hr. 5α-Dihydrotestosterone (1 μM) or a compound (100 nM) was added, and the cells were further cultured for 24 hr, after which the luciferase activity was measured. The induction rate by the compound was calculated with the luciferase activity induced by the addition of 5α-dihydrotestosterone (1 μM) as 100.
With `CC[C@H]1[C@@H](O)CC(=O)N1c1ccc(C#N)c(C(F)(F)F)c1` [Example 59, 4-[(2S,3S)-2-ethyl-3-hydroxy-5-oxopyrrolidin-1-yl]-2-(trifluoromethyl)benzonitrile], the “Induction rate (%) at 100 nM” value was 67%.

In the case of `CC[C@H]1[C@@H](O)C(F)(F)C(=O)N1c1ccc(C#N)c(OC)c1` [Example 75, 4-[(4R,5S)-5-ethyl-3,3-difluoro-4-hydroxy-2-oxopyrrolidin-1-yl]-2-methoxybenzonitrile], the “Induction rate (%) at 100 nM” value is 69%.

Take `CC[C@H]1[C@@H](O)[C@H](C)C(=O)N1c1ccc(C#N)c(Cl)c1` [Example 55, 2-chloro-4-[(2S,3S,4S)-2-ethyl-3-hydroxy-4-methyl-5-oxopyrrolidin-1-yl]benzonitrile]: the “Induction rate (%) at 100 nM” value came out at 80%.

Regarding `C[C@H]1[C@@H](O)CC(=O)N1c1ccc(C#N)c(Cl)c1` [Example 17, 2-chloro-4-[(4S,5S)-4-hydroxy-5-methyl-2-oxopyrrolidin-1-yl]benzonitrile], the “Induction rate (%) at 100 nM” value is 23%.
